In publication PMC2842125 (Journal of medicinal chemistry, 2010):

Tests used:
HEK293 cells = assay: EGF-stimulated ERK1/2 activation, phospho-ERK1/2 immunoblot
SHP2 = biological target: T1, SHP2 (Homo sapiens, UniProt Q06124); assay: SHP2-catalyzed pNPP hydrolysis inhibition; format: biochemical; conditions: ratio of IC50 values
T1 sequence (Q06124 262-528): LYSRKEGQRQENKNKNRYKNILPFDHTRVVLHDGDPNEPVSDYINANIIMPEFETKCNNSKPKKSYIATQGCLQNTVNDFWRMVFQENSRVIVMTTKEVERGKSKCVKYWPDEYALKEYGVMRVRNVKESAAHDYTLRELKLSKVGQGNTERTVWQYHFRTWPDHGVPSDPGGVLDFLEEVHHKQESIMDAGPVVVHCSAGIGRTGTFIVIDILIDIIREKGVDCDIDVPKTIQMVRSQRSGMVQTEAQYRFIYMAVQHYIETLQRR

Cn1c(-c2ccccc2)c(-c2cn(CCC(=O)Nc3ccccc3)nn2)c2cc(C(=O)O)c(O)cc21 [Compound 14, 6-Hydroxy-1-methyl-3-(1-(3-oxo-3-(phenylamino)propyl)-1H-1,2,3-triazol-4yl)-2-phenyl-1H-indole-5-carboxylic acid]
pERK1/2 level normalized by total ERK1/2 (HEK293 cells; 20 μM, EGF stimulation 60 min): no appreciable change
fold change of SHP2 IC50 relative to 9 (SHP2): 15.6 fold

Cn1c(-c2ccccc2)c(-c2cn(CCC(=O)Nc3ccc(-c4ccccc4)cc3)nn2)c2cc(C(=O)O)c(O)cc21 [Compound 9, 3-(1-(3-(biphenyl-4-ylamino)-3-oxopropyl)-1H-1,2,3-triazol-4-yl)-6-hydroxy-1-methyl-2-phenyl-1H-indole-5-carboxylic acid]
EGF-induced ERK1/2 activation, dose dependence (HEK293 cells; 0 to 20 μM, EGF stimulation 60 min): concentration-dependent inhibition
initial transient phase of ERK1/2 activation (phospho-ERK1/2) (HEK293 cells; 10 μM, 3 h pre-incubation, 5-15 min post EGF 2 ng/mL): not the initial transient phase
sustained phase of ERK1/2 activation (phospho-ERK1/2) (HEK293 cells; 10 μM, 3 h pre-incubation, 60 min post EGF 2 ng/mL): strongly inhibits

Cn1c(-c2ccccc2)c(-c2cn(CCCC(=O)Nc3ccc(-c4ccccc4)cc3)nn2)c2cc(C(=O)O)c(O)cc21 [Compound 9b, 3-(1-(4-(biphenyl-4-ylamino)-4-oxobutyl)-1H-1,2,3-triazol-4-yl)-6-hydroxy-1-methyl-2-phenyl-1H-indole-5-carboxylic acid]
fold change of SHP2 IC50 relative to 9 (SHP2): ~2 fold

Cn1c(-c2ccccc2)c(-c2cn(CC(=O)Nc3ccc(-c4ccccc4)cc3)nn2)c2cc(C(=O)O)c(O)cc21 [Compound 9a, 3-(1-(2-(Biphenyl-4-ylamino)-2-oxoethyl)-1H-1,2,3-triazol-4-yl)-6-hydroxy-1-methyl-2-phenyl-1H-indole-5-carboxylic acid]
fold change of SHP2 IC50 relative to 9 (SHP2): ~2 fold
